These results are taken from PubChem BioAssay (NCI).

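Each compound was tested at five concentrations against cells in 96-well plates for 48 hours. TGI marks complete inhibition of growth.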 Some results are limits rather than exact numbers.

The test system of one test is UACC-62 melanoma. Description: DTP human tumour cell line panel, 48 h.
Molecule `O=C1CC(c2ccc([N+](=O)[O-])cc2)C2(C(=O)NC(=S)NC2=O)C(c2ccc([N+](=O)[O-])cc2)C1` (stereo not given) displayed a TGI of 32.6 µM.
Turning to `O=C1OC[C@@H]2Cc3c([nH]c4ccccc34)[C@@H](c3ccc(O)cc3)N12`, the TGI was found to be 69.8 µM.
In the case of `CC1=CC(=O)N(n2c(C)n[nH]c2=O)C1=O`, the TGI was > 100 µM.
On the same count and under the same terms, the same measure for `C(=Nc1ccc(-c2nc3ccccc3s2)cc1)c1ccco1`: > 100 µM.
Take `Cc1cccc(N(CCC#N)S(=O)(=O)c2ccccc2)c1`: the total growth inhibition concentration (TGI) was > 100 µM.
Take `c1ccc2c(c1)CCCN1CCc3ccccc3C21` (stereo not given): the TGI was > 100 µM.
Take `CN1CN(c2ccccc2)C2(CCN(CCCC3(c4cccs4)OCCO3)CC2)C1=O`: the TGI was > 100 µM.
For `CCOC(=O)c1c(SCCN2CCCC2)n(-c2ccccc2)c(=S)n(-c2ccccc2)c1=O`, the TGI amounted to 7.29 µM.
As to `O=c1c2cc(I)ccc2[nH]c(=S)n1Cc1ccccc1`, the TGI is > 100 µM.
`N#Cc1c(OCCF)c2ccccc2n2c1nc1ccccc12`: the TGI was > 100 µM.
`O=C1/C(=C/c2ccc([N+](=O)[O-])cc2)CNC/C1=C\c1ccc([N+](=O)[O-])cc1` came in with a TGI of 29.5 µM.
On the same count and under the same terms, the same measure for `CC1CC(C#N)=C2NCCCCN2C1=O` (stereo not given): > 100 µM; for `CCOc1ccc(N=C/C=C(\Cl)c2ccc3ccccc3c2)cc1`: 31 µM; for `Cc1ccc(C2=Nc3c(c(C)nn3-c3ccccc3)N=C(C(=O)O)C2)cc1`: > 10 µM.
`O=C1C(Br)=Cc2c(Cl)sc(Cl)c21` showed a TGI of 27.2 µM.
Consider `O=[N+]([O-])C(=C(Sc1ccccc1)Sc1ccccc1)C(Cl)=C(Cl)Cl`, for which the TGI is 1.94 µM.
For the molecule `CCOC(=O)C1C(=O)CC(O)(c2ccccc2)C(C(=O)OCC)C1c1ccc(OC)cc1` (stereo not given), the TGI was > 100 µM.
With `COC(=O)CCCC(=O)C(=Nc1c(Cl)cccc1Cl)NNc1ccc(Cl)cc1`, the TGI was > 100 µM.
Still for that read-out and setting: the same measure for `C=CC/C(C(=O)OC)=C(/C(=O)OC)N(CCC)CCC`: > 100 µM.

The test system of the next test is SF-539 CNS. Description: DTP human tumour cell line panel, 48 h.
Consider `O=C1CC(c2ccc([N+](=O)[O-])cc2)C2(C(=O)NC(=S)NC2=O)C(c2ccc([N+](=O)[O-])cc2)C1` (stereo not given), for which the TGI is > 100 µM.
Take `O=C1OC[C@@H]2Cc3c([nH]c4ccccc34)[C@@H](c3ccc(O)cc3)N12`: the TGI was > 74 µM.
For `CC1=CC(=O)N(n2c(C)n[nH]c2=O)C1=O`, the TGI is > 100 µM.
For the molecule `C(=Nc1ccc(-c2nc3ccccc3s2)cc1)c1ccco1`, the TGI was > 100 µM.
In the case of `Cc1cccc(N(CCC#N)S(=O)(=O)c2ccccc2)c1`, the TGI is > 100 µM.
For the molecule `c1ccc2c(c1)CCCN1CCc3ccccc3C21` (stereo not given), the TGI was 46.5 µM.
For the molecule `CN1CN(c2ccccc2)C2(CCN(CCCC3(c4cccs4)OCCO3)CC2)C1=O`, the concentration for total growth inhibition (TGI) was > 100 µM.
For the molecule `CCOC(=O)c1c(SCCN2CCCC2)n(-c2ccccc2)c(=S)n(-c2ccccc2)c1=O`, the TGI stood at 4.86 µM.
As for `O=c1c2cc(I)ccc2[nH]c(=S)n1Cc1ccccc1`, the TGI was 33.4 µM.
`N#Cc1c(OCCF)c2ccccc2n2c1nc1ccccc12` returned a TGI of 52.3 µM.
Turning to `O=C1/C(=C/c2ccc([N+](=O)[O-])cc2)CNC/C1=C\c1ccc([N+](=O)[O-])cc1`, the TGI is 5.59 µM.
Take `CC1CC(C#N)=C2NCCCCN2C1=O` (stereo not given): the TGI was > 100 µM.
Molecule `CCOc1ccc(N=C/C=C(\Cl)c2ccc3ccccc3c2)cc1` registered a TGI of 39 µM.
For the molecule `Cc1ccc(C2=Nc3c(c(C)nn3-c3ccccc3)N=C(C(=O)O)C2)cc1`, the TGI was > 10 µM.
For the molecule `O=C1C(Br)=Cc2c(Cl)sc(Cl)c21`, the total growth inhibition concentration (TGI) was 15.1 µM.
On the same count and under the same terms, to `O=[N+]([O-])C(=C(Sc1ccccc1)Sc1ccccc1)C(Cl)=C(Cl)Cl` belongs 5.81 µM; to `CCOC(=O)C1C(=O)CC(O)(c2ccccc2)C(C(=O)OCC)C1c1ccc(OC)cc1` (stereo not given), 40.9 µM.
With `COC(=O)CCCC(=O)C(=Nc1c(Cl)cccc1Cl)NNc1ccc(Cl)cc1`, the TGI is > 100 µM.
With `C=CC/C(C(=O)OC)=C(/C(=O)OC)N(CCC)CCC`, the total growth inhibition concentration (TGI) is > 100 µM.

Another test deals with U251 CNS. Description: DTP human tumour cell line panel, 48 h.
In turn, `O=C1CC(c2ccc([N+](=O)[O-])cc2)C2(C(=O)NC(=S)NC2=O)C(c2ccc([N+](=O)[O-])cc2)C1` (stereo not given) gave a TGI of 37 µM.
For `O=C1OC[C@@H]2Cc3c([nH]c4ccccc34)[C@@H](c3ccc(O)cc3)N12`, the TGI is > 100 µM.
Still for that read-out and setting: to `CC1=CC(=O)N(n2c(C)n[nH]c2=O)C1=O` belongs > 100 µM; to `C(=Nc1ccc(-c2nc3ccccc3s2)cc1)c1ccco1`, > 100 µM; to `Cc1cccc(N(CCC#N)S(=O)(=O)c2ccccc2)c1`, > 100 µM.
As for `c1ccc2c(c1)CCCN1CCc3ccccc3C21` (stereo not given), the TGI is > 100 µM.
As to `CN1CN(c2ccccc2)C2(CCN(CCCC3(c4cccs4)OCCO3)CC2)C1=O`, the TGI is > 100 µM.
On to `CCOC(=O)c1c(SCCN2CCCC2)n(-c2ccccc2)c(=S)n(-c2ccccc2)c1=O`, for which the TGI was found to be 16.7 µM.
Consider `O=c1c2cc(I)ccc2[nH]c(=S)n1Cc1ccccc1`, for which the TGI was > 100 µM.
Consider `N#Cc1c(OCCF)c2ccccc2n2c1nc1ccccc12`, for which the TGI was > 100 µM.
On the same count and under the same terms, the same measure for `O=C1/C(=C/c2ccc([N+](=O)[O-])cc2)CNC/C1=C\c1ccc([N+](=O)[O-])cc1`: 1.67 µM; for `CC1CC(C#N)=C2NCCCCN2C1=O` (stereo not given): > 100 µM.
With `CCOc1ccc(N=C/C=C(\Cl)c2ccc3ccccc3c2)cc1`, the TGI was 33.4 µM.
Same read-out and setting: the same measure for `Cc1ccc(C2=Nc3c(c(C)nn3-c3ccccc3)N=C(C(=O)O)C2)cc1`: > 10 µM; for `O=C1C(Br)=Cc2c(Cl)sc(Cl)c21`: 7.53 µM.
Take `O=[N+]([O-])C(=C(Sc1ccccc1)Sc1ccccc1)C(Cl)=C(Cl)Cl`: the TGI was determined as 4.21 µM.
On to `CCOC(=O)C1C(=O)CC(O)(c2ccccc2)C(C(=O)OCC)C1c1ccc(OC)cc1` (stereo not given), for which the TGI was > 76.8 µM.
For `COC(=O)CCCC(=O)C(=Nc1c(Cl)cccc1Cl)NNc1ccc(Cl)cc1`, the TGI was > 100 µM.
Regarding `C=CC/C(C(=O)OC)=C(/C(=O)OC)N(CCC)CCC`, the TGI is > 100 µM.

The next test concerns NCI-H522 lung. Put plainly: DTP human tumour cell line panel, 48 h.
In turn, `O=C1CC(c2ccc([N+](=O)[O-])cc2)C2(C(=O)NC(=S)NC2=O)C(c2ccc([N+](=O)[O-])cc2)C1` (stereo not given) returned a TGI of 36.4 µM.
`O=C1OC[C@@H]2Cc3c([nH]c4ccccc34)[C@@H](c3ccc(O)cc3)N12` showed a TGI of 77.6 µM.
The same measure, in the same setting: to `CC1=CC(=O)N(n2c(C)n[nH]c2=O)C1=O` belongs > 100 µM; to `C(=Nc1ccc(-c2nc3ccccc3s2)cc1)c1ccco1`, > 100 µM.
Regarding `Cc1cccc(N(CCC#N)S(=O)(=O)c2ccccc2)c1`, the TGI is > 100 µM.
Same read-out and setting: the same measure for `c1ccc2c(c1)CCCN1CCc3ccccc3C21` (stereo not given): > 100 µM; for `CN1CN(c2ccccc2)C2(CCN(CCCC3(c4cccs4)OCCO3)CC2)C1=O`: > 100 µM.
For the molecule `CCOC(=O)c1c(SCCN2CCCC2)n(-c2ccccc2)c(=S)n(-c2ccccc2)c1=O`, the TGI was found to be 4.08 µM.
The same measure, in the same setting: the same measure for `O=c1c2cc(I)ccc2[nH]c(=S)n1Cc1ccccc1`: 42.9 µM; for `N#Cc1c(OCCF)c2ccccc2n2c1nc1ccccc12`: > 100 µM; for `O=C1/C(=C/c2ccc([N+](=O)[O-])cc2)CNC/C1=C\c1ccc([N+](=O)[O-])cc1`: 9.4 µM.
Regarding `CC1CC(C#N)=C2NCCCCN2C1=O` (stereo not given), the TGI is > 100 µM.
Same read-out and setting: the same measure for `CCOc1ccc(N=C/C=C(\Cl)c2ccc3ccccc3c2)cc1`: 52.1 µM; for `Cc1ccc(C2=Nc3c(c(C)nn3-c3ccccc3)N=C(C(=O)O)C2)cc1`: > 10 µM; for `O=C1C(Br)=Cc2c(Cl)sc(Cl)c21`: 11.7 µM.
As for `O=[N+]([O-])C(=C(Sc1ccccc1)Sc1ccccc1)C(Cl)=C(Cl)Cl`, the TGI turned out to be 0.143 µM.
Molecule `CCOC(=O)C1C(=O)CC(O)(c2ccccc2)C(C(=O)OCC)C1c1ccc(OC)cc1` (stereo not given) displayed a TGI of 38.2 µM. This TGI is about 270-fold higher than that of the molecule before.
Consider `COC(=O)CCCC(=O)C(=Nc1c(Cl)cccc1Cl)NNc1ccc(Cl)cc1`, for which the TGI was > 85.7 µM.
The same measure, in the same setting: to `C=CC/C(C(=O)OC)=C(/C(=O)OC)N(CCC)CCC` belongs > 100 µM.

The test system of the next test is MDA-MB-435. Description: DTP human tumour cell line panel, 48 h.
In the case of `O=C1CC(c2ccc([N+](=O)[O-])cc2)C2(C(=O)NC(=S)NC2=O)C(c2ccc([N+](=O)[O-])cc2)C1` (stereo not given), the TGI is 40.4 µM.
In turn, `O=C1OC[C@@H]2Cc3c([nH]c4ccccc34)[C@@H](c3ccc(O)cc3)N12` came in with a TGI of 68.2 µM. This TGI is about 1.7-fold higher than that of the molecule before.
As to `CC1=CC(=O)N(n2c(C)n[nH]c2=O)C1=O`, the TGI is > 100 µM.
In the case of `C(=Nc1ccc(-c2nc3ccccc3s2)cc1)c1ccco1`, the TGI is > 100 µM.
Still for that read-out and setting: the same measure for `Cc1cccc(N(CCC#N)S(=O)(=O)c2ccccc2)c1`: > 100 µM.
For the molecule `c1ccc2c(c1)CCCN1CCc3ccccc3C21` (stereo not given), the TGI is 56.4 µM.
Same read-out and setting: the same measure for `CN1CN(c2ccccc2)C2(CCN(CCCC3(c4cccs4)OCCO3)CC2)C1=O`: > 100 µM; for `CCOC(=O)c1c(SCCN2CCCC2)n(-c2ccccc2)c(=S)n(-c2ccccc2)c1=O`: 5.95 µM.
With `O=c1c2cc(I)ccc2[nH]c(=S)n1Cc1ccccc1`, the TGI is > 100 µM.
Consider `N#Cc1c(OCCF)c2ccccc2n2c1nc1ccccc12`, for which the TGI was > 100 µM.
In the case of `O=C1/C(=C/c2ccc([N+](=O)[O-])cc2)CNC/C1=C\c1ccc([N+](=O)[O-])cc1`, the TGI was 23.9 µM.
Regarding `CC1CC(C#N)=C2NCCCCN2C1=O` (stereo not given), the TGI was > 100 µM.
Molecule `CCOc1ccc(N=C/C=C(\Cl)c2ccc3ccccc3c2)cc1` returned a TGI of 43.9 µM. This counts as double-digit micromolar.
As for `Cc1ccc(C2=Nc3c(c(C)nn3-c3ccccc3)N=C(C(=O)O)C2)cc1`, the TGI is > 10 µM.
Regarding `O=C1C(Br)=Cc2c(Cl)sc(Cl)c21`, the TGI came out at 5.43 µM.
The molecule `O=[N+]([O-])C(=C(Sc1ccccc1)Sc1ccccc1)C(Cl)=C(Cl)Cl` came in with a TGI of 1.3 µM. Compared with the last molecule, the TGI is about 4.2-fold lower.
As to `CCOC(=O)C1C(=O)CC(O)(c2ccccc2)C(C(=O)OCC)C1c1ccc(OC)cc1` (stereo not given), the TGI turned out to be 11.4 µM. Compared with the last molecule, the TGI is about 8.8-fold higher.
As for `COC(=O)CCCC(=O)C(=Nc1c(Cl)cccc1Cl)NNc1ccc(Cl)cc1`, the TGI is > 100 µM.
In the case of `C=CC/C(C(=O)OC)=C(/C(=O)OC)N(CCC)CCC`, the TGI was > 100 µM.
